# Measurements as given in patent US20040266732A1, “Therapeutic agents, methods, and treatments” (priority 2002, published 2004).
# Tests used:
# Experiment in all cases: NCI 60 cell-line test
# Assay type in all cases: cell-based, human
# RPMI-8226 = RPMI-8226 (Leukemia)
# Protocol: (§1) Methodology: The NCI conducted a test of the MT103 drug against 60 human cell lines, with a minimum of five concentrations of MT103 at 10-fold dilutions. A 48 hour continuous drug exposure was used, and a sulforhodamine B (SRB) protein assay was used to estimate cell viability and growth. The human tumor cell lines of the cancer screening panel were grown in RPMI 1640 medium containing 5% fetal bovine serum and 2 mM L-glutamine. Cells were inoculated into 96 well microtiter plates in 100 μL at plating densities ranging from 5,000 to 40,000 cells/well depending on the doubling time of individual cell lines. After cell inoculation, the microtiter plates are incubated at 37° C., 5% CO2, 95% air, and 100% relative humidity for 24 h prior to addition of experimental drugs.
# (§2) After 24 h, two plates of each cell line were fixed in situ with TCA, to represent a measurement of the cell population for each cell line at the time of drug addition (Tz). MT103 was solubilized in dimethyl sulfoxide at 400-fold the desired final maximum test concentration and stored frozen prior to use. At the time of drug addition, an aliquot of frozen concentrate was thawed and diluted to twice the desired final maximum test concentration with complete medium containing 50 μg/ml gentamicin. Additional four, 10-fold or ½ log serial dilutions were made to provide a total of five drug concentrations plus control. Aliquots of 100 μl of these different drug dilutions were added to the appropriate microtiter wells already containing 100 μl of medium, resulting in the required final drug concentrations.
# (§3) Following drug addition, the plates were incubated for an additional 48 h at 37° C., 5% CO2, 95% air, and 100% relative humidity. For adherent cells, the assay was terminated by the addition of cold TCA. Cells were fixed in situ by the gentle addition of 50 μl of cold 50% (w/v) TCA (final concentration, 10% TCA) and incubated for 60 minutes at 4° C. The supernatant was discarded, and the plates were washed five times with tap water and air dried. Sulforhodamine B (SRB) solution (100 μl) at 0.4% (w/v) in 1% acetic acid was added to each well, and plates were incubated for 10 minutes at room temperature. After staining, unbound dye was removed by washing five times with 1% acetic acid and the plates were air-dried. Bound stain was subsequently solubilized with 10 mM trizma base, and the absorbance was read on an automated plate reader at a wavelength of 515 nm. For suspension cells, the methodology was the same except that the assay was terminated by fixing settled cells at the bottom of the wells by gently adding 50 μl of 80% TCA (final concentration, 16% TCA). Using the seven absorbance measurements (time zero, (Tz), control growth, (C), and test growth in the presence of drug at the five concentration levels (Ti)), the percentage growth was calculated at each of the drug concentrations levels. Percentage growth inhibition was calculated as:
# (§4) [(Ti-Tz)/(C-Tz)]×100 for concentrations for which Ti>/=Tz
# (§5) [(Ti-Tz)/Tz]×100 for concentrations for which Ti<Tz.
# (§6) Three dose response parameters were calculated for each experimental agent. Growth inhibition of 50% (GI50) was calculated from [(Ti-Tz)/(C-Tz)]×100=50, which is the drug concentration resulting in a 50% reduction in the net protein increase (as measured by SRB staining) in control cells during the drug incubation. The drug concentration resulting in total growth inhibition (TGI) was calculated from Ti=Tz. The LC50 (concentration of drug resulting in a 50% reduction in the measured protein at the end of the drug treatment as compared to that at the beginning) indicating a net loss of cells following treatment was calculated from [(Ti-Tz)/Tz]×100=−50. Values were calculated for each of these three parameters if the level of activity is reached; however, if the effect was not reached or was exceeded, the value for that parameter was expressed as greater or less than the maximum or minimum concentration tested.
# PC-3 = PC-3 (Prostate Cancer)
# Protocol: as §1, §2, §3, §4, §5, §6
# BT-549 = BT-549 (Breast Cancer)
# Protocol: as §1, §2, §3, §4, §5, §6
# SK-OV-3 = SK-OV-3 (Ovarian Cancer)
# Protocol: as §1, §2, §3, §4, §5, §6
# SF-268 = SF-268 (CNS Cancer)
# Protocol: as §1, §2, §3, §4, §5, §6
# A498 = A498 (Renal Cancer)
# Protocol: as §1, §2, §3, §4, §5, §6
# EKVX = EKVX (Non-Small Cell Lung Cancer)
# Protocol: as §1, §2, §3, §4, §5, §6
# SN12C = SN12C (Renal Cancer)
# Protocol: as §1, §2, §3, §4, §5, §6
# SNB-19 = SNB-19 (CNS Cancer)
# Protocol: as §1, §2, §3, §4, §5, §6
# RXF 393 = RXF 393 (Renal Cancer)
# Protocol: as §1, §2, §3, §4, §5, §6
# HL-60 (TB) = HL-60 (TB) (Leukemia)
# Protocol: as §1, §2, §3, §4, §5, §6
# HOP-62 = HOP-62 (Non-Small Cell Lung Cancer)
# Protocol: as §1, §2, §3, §4, §5, §6
# HCT-116 = HCT-116 (Colon Cancer)
# Protocol: as §1, §2, §3, §4, §5, §6
# OVCAR-5 = OVCAR-5 (Ovarian Cancer)
# Protocol: as §1, §2, §3, §4, §5, §6
# IGROV1 = IGROV1 (Ovarian Cancer)
# Protocol: as §1, §2, §3, §4, §5, §6
# [1] = read-out: LC50 (the source's name)
smiles,measurement,setting,value
CC1(C)C2CC[C@@]1(CS(=O)(=O)N(C1CCCCC1)C1CCCCC1)C(O)C2 (stereo partly drawn) [MT103],TGI,RPMI-8226,3.68E−05
same,IC50,RPMI-8226; read-out: G150,11.8 µM
same,CC50,RPMI-8226; [1],> 100 µM
same,TGI,PC-3,>1.00E−04
same,IC50,PC-3; read-out: G150,27.8 µM
same,CC50,PC-3; [1],> 100 µM
same,TGI,BT-549,>1.00E−04
same,IC50,BT-549; read-out: G150,59.3 µM
same,CC50,BT-549; [1],> 100 µM
same,TGI,SK-OV-3,>1.00E−04
same,IC50,SK-OV-3; read-out: G150,83.2 µM
same,CC50,SK-OV-3; [1],> 100 µM
same,TGI,SF-268,>1.00E−04
same,IC50,SF-268; read-out: G150,35.8 µM
same,CC50,SF-268; [1],> 100 µM
same,TGI,A498,9.07E−05
same,IC50,A498; read-out: G150,30.4 µM
same,CC50,A498; [1],> 100 µM
same,TGI,EKVX,9.83E−05
same,IC50,EKVX; read-out: G150,31.3 µM
same,CC50,EKVX; [1],> 100 µM
same,TGI,SN12C,>1.00E−04
same,IC50,SN12C; read-out: G150,33 µM
same,CC50,SN12C; [1],> 100 µM
same,TGI,SNB-19,>1.00E−04
same,IC50,SNB-19; read-out: G150,68 µM
same,CC50,SNB-19; [1],> 100 µM
same,TGI,RXF 393,9.77E−05
same,IC50,RXF 393; read-out: G150,24.2 µM
same,CC50,RXF 393; [1],> 100 µM
same,TGI,HL-60 (TB),8.33E−05
same,IC50,HL-60 (TB); read-out: G150,19 µM
same,CC50,HL-60 (TB); [1],> 100 µM
same,TGI,HOP-62,>1.00E−04
same,IC50,HOP-62; read-out: G150,57.5 µM
same,CC50,HOP-62; [1],> 100 µM
same,TGI,HCT-116,>1.00E−04
same,IC50,HCT-116; read-out: G150,43.8 µM
same,CC50,HCT-116; [1],> 100 µM
same,TGI,OVCAR-5,5.70E−05
same,IC50,OVCAR-5; read-out: G150,23.7 µM
same,CC50,OVCAR-5; [1],> 100 µM
same,TGI,IGROV1,>1.00E−04
same,IC50,IGROV1; read-out: G150,34.8 µM
same,CC50,IGROV1; [1],> 100 µM
